The values that follow come from patent US20140080903A1, “APPLICATION OF ALPHA-MANGOSTIN IN PREPARATION OF MEDICAMENTS FOR ALZHEIMER'S DISEASE” (BOMAI LIMITED, priority 2011, published 2014).

In one experiment the test system is primary neuronal cells. Kind of experiment: high content assay of neuroprotective effect against Aβ oligomer. In kind it is cell-based, SD rat. As to conditions: 50 nM α-Mangostin, 1 μM Aβ oligomer.
A further experiment has as its system SAM-P8 mice. Kind of experiment: Morris water maze test in SAM-P8 mice. As to conditions: for distance: mid-dose group. In kind it is in vivo. As to the method:
Female SAM-P8 mice of 8-month old were employed as the model animal in the invention. All of the mice experimental procedures strictly followed the Guide for the Care and Use of Laboratory Animals as adopted and promulgated by the National Institutes of Health, USA, including sterile rearing environment, temperature controlled between 23° C. and 25° C., humidity controlled at 55±5%, and an interval of twelve hours light.
The concentration and dose of α-Mangostin applied in the experiment were adjusted according to the different animal models. In molecular experiments, α-Mangostin was employed to calibrate the concentration of Aβ, prepared with the unit of molar concentration, and compared with the known Aβ aggregation inhibitor. In cellular experiments, α-Mangostin was also prepared with the unit of molar concentration, and provided in screening from the concentration of 50 pmol/L to 500nmol/L. In animal experiments, following the established practice, α-Mangostin was prepared with the unit of weight/animal weight, provided dosage range across three orders of magnitude of low dose (1 μg/kg), mid dose (10 μg/kg), high dose (100 μg/kg), and administrated orally (O.P., Solid granules).
SAM-P8 mice were weight and divided into five groups randomly, including the model group, low-dose (1 μg/kg) , mid-dose (10 μg/kg) , high-dose ([…]) groups and positive control group treated with resveratrol (10 mg/kg). SAM-R1 mice were used as normal control. Reagents were mixed in food and applied to mice from the 3rd day after grouping (enter 6 months age) to the end of the test. Normal control group and model group were administrated with the same amount of food.
Morris water maze test was carried out when SAM-P8 mice entered the age of 8 months. Water temperature in the experiment was controlled at 22±0.5° C. Mice were put into water with their faces towards the wall and backs towards water. The computer started automatically to record the trace and time (escape latency) of mice seeking the platform within 100 seconds. […] The tests were carried out twice every day, with an interval of 6 hours, and continued for 3 days. After place navigation test, the platform was removed. Mice were placed into water at a certain place of entry. The first time those mice reached the platform and the times that mice across the platform were recorded.

The target in the next experiment is T1, Aβ oligomer (Homo sapiens, UniProt P05067).
T1 construct: purchased Sigma-Aldrich Corporation (China)
Kind of experiment: ELISA determination of Aβ oligomer (6E10/A11). In kind it is biochemical. Here is the method:
1 mg Aβ was dissolved in 500 μL HFIP at room temperature, of which 100 μL was transferred into a clean centrifuge tube (1.5 mL), where 900 μL sterile deionized water was added. Followed with centrifugation, the supernatant was moved to another clean centrifuge tube (1.5 mL) and HFIP was dried with high pure nitrogen blowing. Then the solution was stirred at 500 rpm for 48 hours at 22° C., using a micro stir bar, to get the solution of Aβ oligomer (1 μM). In inhibition experiment, α-Mangostin was added into the Aβ oligomer solution to obtain the final concentrations of 5 μM, 2 μM, 1 μM, 0.5 μM and 0.2 μM, respectively, and followed with another 12 hours stirring at 500 rpm and 22° C.α-Mangostin can also be added before stirring with Aβ oligomer for 12 hours.
The incubated solution was applied into the 96-well microplate coated with 100 μL monoclonal anti-Aβ antibody (6E10). After incubation for 1 hour at 37° C., the wells were washed 3 times with washing buffer and 100 μL Oligomer-specific antibody (A11) was applied. After 5 times washing, 100 μL HRP-conjugated Goat anti-Rabbit IgG was applied. After another 5 times washing and 15 minutes colour developing, the optical density was recorded and statistically analyzed with plate reader.
A general note: ELISA stands for enzyme-linked immunosorbent assay.

For the next experiment, the target named is T2, Aβ (Homo sapiens, UniProt P05067).
T2 construct: purchased Sigma-Aldrich Corporation (China)
Kind of experiment: Thioflavin-T fluorescence kinetics of Aβ aggregation. It counts as biochemical. As to conditions: inhibitor:Aβ 1:1, 37° C.; for incubation time at which Aβ enters into accumulation: Aβ itself 4 hours. As to the method: Resveratrol, Curcumin and Propidium Iodide are the reported inhibitors on Aβ aggregation.
1 mg Aβ was dissolved in 500 μL HFIP, and put at room temperature for 120 minutes with intermittent shaking Then HFIP was dried by high pure nitrogen blowing and 100 μL DMSO was added to prepare an Aβ stock of 2.3 mM, which was stored at −20° C. DMSO was employed to dilute Aβ stock and 2 μL diluted solution was added to 16 μL PBS (0.215M, pH 8.0), which made a solution of Aβ at […], to which 2 μL α-Mangostin (25 μM) or other inhibitors, and blank solvent was added. Followed with incubation for 30 minutes, the mixture was added 80 μL Thioflavin-T(10 μM)/Glycine-NaOH (50 mM, pH8.5) and transferred to microplate for fluorescence intensity measurement. The parameters for measurement was set up as follow: instrument temperature of 37° C., shaking frequency of 240 rpm, radius of […], excitation wavelength of 446 nm, emission wavelength of 485 nm, bandwidth of 5 nm, and detection frequent of every 30 minute. Fluorescence intensity was recorded and statistically analyzed.

The target in another experiment is Histamine H1-receptor (Homo sapiens, UniProt P35367). As to conditions: generally; cited from earlier work.
Where [1] appears, read: 5 μM α-Mangostin, mole ratio to Aβ oligomer 5:1.

Like-named read-outs stand apart in the source and are kept apart here.

T2 sequence (P05067 672-711 limits assumed): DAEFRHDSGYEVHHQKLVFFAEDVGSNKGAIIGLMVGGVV
T1 sequence (P05067 672-711 limits assumed): as above
Chain of Histamine H1-receptor (P35367 whole entry, species assumed): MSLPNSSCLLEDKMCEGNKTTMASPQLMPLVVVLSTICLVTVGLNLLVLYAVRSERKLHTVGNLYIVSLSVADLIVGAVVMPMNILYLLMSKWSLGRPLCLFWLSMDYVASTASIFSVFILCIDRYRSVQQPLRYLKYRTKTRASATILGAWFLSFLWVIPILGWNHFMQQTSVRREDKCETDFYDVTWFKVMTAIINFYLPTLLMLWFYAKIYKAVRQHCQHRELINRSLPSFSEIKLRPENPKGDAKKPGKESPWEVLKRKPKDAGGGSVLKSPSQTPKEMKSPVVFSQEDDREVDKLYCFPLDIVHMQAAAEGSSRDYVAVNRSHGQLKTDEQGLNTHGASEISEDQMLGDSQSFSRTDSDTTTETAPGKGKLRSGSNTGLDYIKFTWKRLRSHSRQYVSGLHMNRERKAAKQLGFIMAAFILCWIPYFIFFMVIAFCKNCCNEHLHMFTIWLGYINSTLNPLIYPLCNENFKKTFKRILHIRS
Experimental for primary neuronal cells: Mammalian neurons in the experiment were prepared from embryonic day 15 SD rat embryos. A medium specific for neurons was employed, including neurobasal, 2% B27 and 1% glutamine that were all commercial and used following the instructions of the manufacturer.
Embryonic day 15 SD rats are etherized and embryos were collected to a sterile dish with an anatomic buffer. Heads of the embryos were cut to a precooling dish with an anatomic buffer. A pair of straight forceps were inserted through eyes to fix the head, and another pincett was inserted along the head sagittal suture. The mening and skull were torn from front to back and to collect the brain. The hippocampus was peeled to the anatomic buffer in a precooling dish. The hippocampus was dissected by scissors disinfected with 75% alcohol. The minced tissues were collected into a marked 15 ml centrifuge tube and let them naturally precipitate to the bottom of the tube. The supernatant was discarded, and 2 mL 0.05% Trypsin was added. The tube was flipped several times and let it incubate for 5 minutes at 37° C. (shake evenly every two minutes). […]
The live cell dye stock in CELLOMICS ® Multiparameter Cytotoxicity 2 Kit was diluted to its working concentration. […] The fluorescence intensity was measured with high content plate reader and analyzed by the software of Cell Health Profiling Bio Application.

Consider `COc1c(O)cc2oc3cc(O)c(CC=C(C)C)c(O)c3c(=O)c2c1CC=C(C)C` [α-Mangostin], for which the mitochondrial membrane potential in the experiment with primary neuronal cells (model 70.25±6.97%) was determined as 105.25±5.84%. The “cell membrane permeability of neuronal cells” value in the experiment with primary neuronal cells (model 173.75±6.82%) is listed as 107.75±9.39%. For the same compound, the escape latency is 46.16 ± 5.51 s in the experiment with SAM-P8 mice (day 2, mid-dose group 10 m/kg, oral in food, model 72.17±10.09 s); 40.02 ± 4.16 s in the experiment with SAM-P8 mice (from day 3, first value, mid-dose group 10 μg/kg, model 55.66±5.51 s); 19.05 ± 3.27 s with SAM-P8 mice (from day 3, second value, mid-dose group 10 μg/kg, model 39.93±4.12 s). Further, the distance was 438.78±46.02 cm with SAM-P8 mice (from day 3, first value, model 773.06±65.54) and 223.15±31.29 cm in the experiment with SAM-P8 mice (from day 3, second value, model 543.13±56.72). In addition, the “formation of Aβ oligomer inhibited to” value at Aβ oligomer (setting [1]) was 14.15±2.86%. The “formed Aβ oligomer disaggregated to” value at Aβ oligomer (setting [1]) was 39.58±3.25%. In addition, the values for the IC50 on Aβ oligomer (read-out: IC50 of disaggregation of formed Aβ oligomer) and at Aβ oligomer (read-out: IC50 of inhibition on Aβ oligomer formation) were 1.59 ± 0.82 µM and 1.09 ± 0.54 µM, respectively. Moreover, the “inhibition of Aβ aggregation” value against Aβ (within 24 hours) is given as “almost completely inhibited”. Besides, the “incubation time at which Aβ enters into accumulation” value on Aβ is on record as “no accumulation phase appeared within 24 hours”. The “working concentration as Histamine H1-receptor antagonist” value on Histamine H1-receptor was “higher than 10^−6 mol/L”.

`COc1cc(/C=C/C(=O)CC(=O)/C=C/c2ccc(O)c(OC)c2)ccc1O` [curcumin]: the “incubation time at which Aβ enters into plateau” value on Aβ worked out at 15 h.

In the case of `Oc1ccc(C=Cc2cc(O)cc(O)c2)cc1` [resveratrol, reference compound], the “escape latency and distance compared with model group” value with SAM-P8 mice (from day 3, resveratrol 10 mg/kg positive control) was “notably decreased”. Besides, the “incubation time at which Aβ enters into plateau” value on Aβ worked out at 15 h.

For the compound `CC[N+](C)(CC)CCC[n+]1c(-c2ccccc2)c2cc(N)ccc2c2ccc(N)cc21.[I-].[I-]` [propidium iodide], at Aβ, the “incubation time at which Aβ enters into plateau” value was 10 h and the “incubation time at which Aβ enters into accumulation” value came out at 6 h. Further, the “maximum fluorescence intensity compared with Aβ incubated itself” value at Aβ (within 24 hours) stood at 10%.
